Key:
[1] = tested on: male pattern baldness in stage V; test: Therapeutic effect on male pattern baldness in stage V, scored (Example 10); format: in vivo, human; design: key: 10: alopecic area decreased to 1/5 or less and hair density increased by 2/3 or more; 7: alopecic area decreased to 1/3 or less and hair density increased by 1/3 or more; 4: alopecic area decreased to 1/2 or less and hair density increased by 1/5 or more; alopecic area decreased by 20% and hair density increased by 10% or more; 1: alopecic area hardly changed but hair density increased definitely; 0: no change at all; settings: formula with 1% diterpene, twice a day; for Score, 0 mo.: 0 months; for Score, 1 mo.: 1 month; for Score, 2 mo.: 2 months; for Score, 4 mo.: 4 months; for Score, 6 mo.: 6 months
Protocol: Diterpenes of the invention were evaluated for their therapeutic effects on male pattern baldness in stage V. The curatives were prepared in accordance with the formula set forth in Table 11. | Ethanol 50% | Propylene glycol | 10% | HCO-60 3% | Diterpene 1% | Purified water | 36% The curatives were applied to the bald area of male volunteers (aged 27-45) in five groups each consisting of 5 cases. The application was done daily on a twice-a-day basis and continued for 6 months. The therapeutic efficacy was evaluated by the following criteria based on the decrease in the area of the parietal alopecic lesion and the density of regrowing hairs: 10 (alopecic area decreased to 1/5 or less and hair density increased by 2/3 or more); 7 (alopecic area decreased to 1/3 or less and hair density increased by 1/3 or more); 4 (alopecic area decreased to 1/2 or less and hair density increased by 1/5 or more); 2 (alopecic area decreased by 20% and hair density increased by 10% or more); 1 (alopecic area hardly changed but hair density increased definitely); 0 (no change at all).

[2] = tested on: androgen-dependent human prostatic cancer strain HONDA; test: Growth control of androgen-dependent human prostatic cancer strain HONDA in nude mice (Example 15); format: in vivo, human (transplanted in BALB/CA-nu/nu mice); settings: once a day, 28 days; for control of tumor growth (HONDA): peroral in 0.5% CMC
Protocol: Seven-week old BALB/CA-nu/nu mice were transplanted with androgen-dependenthuman prostatic cancer strain HONDA beneath the dorsal skin and 6-week old BALB/CA-nu/nu mice were transplanted with androgen-dependent rat prostatic cancer strain […] beneath the dorsal skin. When the respective tumors grew to a specified size, the animals were divided into test and control groups. The test groups were administered with suspensions of trans-communic acid and flutamide in 0.5% CMC. The control groups were administered with 0.5% CMC alone. The drugs and the vehicle were administered perorally via an oral probe. The administration was repeated daily for 28 consecutive days on a once-a-day basis. The tumor volume (mm^3) was calculated by the formula of major axis (mm) × the square of minor axis (mm^2)/2.

[3] = tested on: acne patients; test: Treatment of acne patients with diterpene lotion, scored (Example 9); format: in vivo, human; settings: lotion with 1% diterpene, twice a day, group score of 6 patients (3 cured completely, 2 half cured, 1 cured 30%, 0 not cured), highest 18; for Score, 1 mo.: 1 month; for Score, 2 mo.: 2 months
Protocol: Patients in their twenties who were suffering from acne were divided into five groups each consisting of 3 males and 3 females and treated with a lotion of the following formula prepared in accordance with the invention. |Ethanol 50% |1,3-Butylene glycol | 20% |HCO-60 3% |Diterpene 1% |Purified water 26% The lotion was applied to the diseased part of a patient's face after washing with takallophene soap and the treatment was conducted daily on a twice-a-day basis for a period of 2 months. The acne in each patient was diagnosed as being moderate and a mixture of comedones (primarily whiteheads), papules and pustules. The results were evaluated by the following criteria: 3, cured completely; 2, half cured; 1, cured 30%; 0, not cured. The highest score was 18 and the lowest score was 0.

[4] = tested on: hirsute male volunteers; test: Hair regrowth on wax-depilated legs of hirsute male volunteers (Example 13); format: in vivo, human; settings: 0.1% in 50% ethanol, twice a day, 3 months, control section indistinguishable from surrounding area
Protocol: An experiment was conducted on 5 hirsute male volunteers aged 25-48. The center of each straight leg was depilated with wax to create a lesion about 2 cm wide and 3 cm long. […] The application was done daily on a twice-a-day basis for 3 consecutive months.

[5] = tested on: androgen-dependent rat prostatic cancer strain R3327-G; test: Growth control of androgen-dependent rat prostatic cancer strain R3327-G in nude mice (Example 15); format: in vivo, rat (transplanted in BALB/CA-nu/nu mice); settings: castrated mice given 25 mg testosterone enanthat per head; peroral, once a day, 28 days
Protocol: Seven-week old BALB/CA-nu/nu mice were transplanted with androgen-dependenthuman prostatic cancer strain HONDA beneath the dorsal skin and 6-week old BALB/CA-nu/nu mice were transplanted with androgen-dependent rat prostatic cancer strain R3327-G beneath the dorsal skin. When the respective tumors grew to a specified size, the animals were divided into test and control groups. The test groups were administered with suspensions of trans-communic acid and flutamide in 0.5% CMC. The control groups were administered with 0.5% CMC alone. The drugs and the vehicle were administered perorally via an oral probe. The administration was repeated daily for 28 consecutive days on a once-a-day basis. The tumor volume (mm^3) was calculated by the formula of major axis (mm) × the square of minor axis (mm^2)/2.
The growth of cancer strain R3327-G was not controlled in castrated mice when they were administered 25 mg of testosterone enanthat per head concurrently with the cancer transplantation.

[6] = tested on: women suffering from idiopathic hirtuism; test: Women suffering from idiopathic hirsutism, depilated right forearm (Example 14); format: in vivo, human; settings: 0.1% in 50% ethanol, twice a day
Protocol: Five women (aged 20-35) suffering from idiopathic hirtuism were treated with 0.1% trans-communic acid in 50% ethanol that was applied daily to a wax depilated area of the right forearm on a twice-a-day basis. Depilation was repeated every other month until the end of the experiment.
Measurements were conducted on the hairs attached to the cloth used for wax depilation.

[7] = tested on: male pattern baldness in stage V; test: Efficacy against male pattern baldness in stage V, male volunteers (Example 4); format: in vivo, human; settings: 1% in 50% alcohol, twice a day, 4 months
Source text: The 5α-reductase inhibitors extracted from Thuja orientalis were examined for their efficacy against male pattern baldness in stage V. The test samples were components A, B and C, as well as the terpenoid isolated from component A and the (iso)scutellarein isolated from component B, which were each dissolved at a concentration of 1% in 50% alcohol. These samples were daily applied on a twice-a-day basis for a period of 4 months to the bald heads of 27-45 year old male volunteers in five groups each consisting of 5 cases.

[8] = tested on: male hirsute volunteers; test: Suppression of hair regrowth in male hirsute volunteers, wax-depilated inferior limbs (Example 5); format: in vivo, human; settings: 1% in 50% alcohol

Compound	Score, 0 mo. [1]	Score, 1 mo. [1]	Score, 2 mo. [1]	Score, 4 mo. [1]	Score, 6 mo. [1]	control of tumor growth (HONDA) [2]	Score, 1 mo. [3]	Score, 2 mo. [3]	further results
CC(C)C(=O)Nc1ccc([N+](=O)[O-])c(C(F)(F)F)c1 [Flutamide, reference compound]	0	1	2	2	4	effective in tumor control	4	8	efficacy of flutamide relative to trans-communic acid (HONDA) ([2]; peroral): considerably weaker than that of trans-communic acid
C=C/C(C)=C/CC1C(=C)CCC2C(C)(C(=O)O)CCCC12C (stereo not drawn) [Sample I, (E)8(17),12,14-labdatrien-19-oic acid]	0	1	4	7	10	could control the growth of this cancer significantly in a dose-dependent manner	8	18	Regrowth of hair, test section, case A ([4]; case A): No regrowth of hair; Regrowth of hair, test section, case B ([4]; case B): No regrowth of hair; Regrowth of hair, test section, case C ([4]; case C): Regrowth of a few hair; Regrowth of hair, test section, case D ([4]; case D): No regrowth of hair; Regrowth of hair, test section, case E ([4]; case E): No regrowth of hair; control of tumor growth (R3327-G) [5]: could effectively control the growth of cancer in a dose-dependent manner; efficacy relative to flutamide (R3327-G) [5]: considerably stronger than that of flutamide; tumor size at 20 mg/kg vs flutamide 200 mg/kg (HONDA) ([2]; trans-communic acid 20 mg/kg, peroral): almost comparable to that of the group administered with 200 mg/kg of flutamide; Hair length (peaked at), sixth measurement, case A ([6]; case A, before treatment: peaked at ca. 10 mm): ca. 10 mm; Hair density, sixth measurement, case A ([6]; case A, before treatment: thick): sparse; Hair length, sixth measurement, case B ([6]; case B, before treatment: peaked at ca. 6 mm): ca. 1 mm; Hair density, sixth measurement, case B ([6]; case B, before treatment: thick): a few; Hair length, sixth measurement, case D ([6]; case D, before treatment: peaked at ca. 8 mm): ca. 2 mm; Hair density, sixth measurement, case D ([6]; case D, before treatment: thick): a few
C=C/C(C)=C/CC1C(=C)CCC2C(C)(C)CCCC12C (stereo not drawn) [Sample II, (E)8(17),12,14-labdatriene]	0	1	4	7	10	–	10	18	–
C=C/C(C)=C/CC1C(=C)CCC2C(C)(CO)CCCC12C (stereo not drawn) [Sample III, (E)8(17),12,14-labdatrien-19-ol]	0	0	4	7	10	–	9	18	–
(iso)scutellarein	–	–	–	–	–	–	–	–	regrowth of hair [7]: pronounced regrowth of hair; regrowth of hair as compared to the control section ([8]; topical, control 50% alcohol alone): significantly suppressed; regrowth of hair in the test sections when the experiment ended ([8]; 3 months): barely recognizable

Reference: patent US5773005A, “Purified flavonoid and diterpene 5α-reductase inhibitors from thuja orientalis for androgen-related diseases” (priority 1995, dated 1998)
